Experimental data from patent US8435556B2, “Transdermal delivery of cannabidiol” (Alltranz, LLC, priority 2005, dated 2013).
Values joined by “and” are separate entries in the source; they are usually repeats but may differ in a detail not shown here. Equal entries are not always repeated.

What was measured:
[1] = human skin permeation of cannabidiol with permeation enhancers; type: in vitro ADME; conditions: enhancer 6% v/v
Text: The aim of the experiment was to evaluate the effect of permeation enhancers on human skin permeation of cannabidiol (CBD). The following permeation enhancers were used in the study: • LAUROGLYCOL 90-(Propylene glycol monolaurate 90%)-LG-90 • TRANSCUTOL HP (Purified diethylene glycol monoethyl ether)-TC-HP • LABRAFIL® M 1944 CS (Oleoyl Macrogolglycerides)-LF • LABRASOL® (Caprylocaproyl Macrogolglycerides)-LB • SUPER REFINED® NOVOL NF (Oleyl Alcohol)-OA
A high-pressure liquid chromatography (HPLC) assay was used for the analysis of CBD in the samples. The HPLC system consisted of a Waters 717 plus Autosampler, Waters 1525 Binary HPLC Pump and Waters 2487 Dual λ Absorbance Detector with Waters Breeze software. A Brownlee C-18 reversed-phase Spheri-5 μm column (220×4.6 mm) with a C-18 reversed phase 7 μm guard column (15×3.2 mm) was used with the UV detector set at a wavelength of 215 nm. The mobile phase was comprised of acetonitrile: 25 mM phosphate buffer with 0.1% triethylamine pH 3.0 (80:20). The flow rate of the mobile phase was […] and 100 μL of the sample was injected onto the column.
Human skin harvested during abdominoplasty was used for the diffusion studies. Skin sections were obtained by using a Padgett Instruments® dermatome set to 250 microns and stored at −20° C. […] Trans-epidermal water loss was measured (Evaporimeter EP1™, ServoMed, Sweden) after securing the skin in the cells. Pieces of skin with readings below 10 g/m^2/h were used for the diffusion studies. […] An excess quantity of CBD was added to the donor vehicle (propylene glycol:Hanks' buffer (80:20)) solution with and without permeation enhancers at 6% v/v, sonicated for 10 min, and then applied onto the skin. Excess quantity of the drug was used in the donor compartment throughout the diffusion experiment in order to maintain maximum and constant chemical potential of the drug in the donor vehicle. […]
Drug disposition in the skin samples was measured at the completion of the 48 h experiment. […] Samples were analyzed by HPLC to determine CBD content in […] (pmol) of drug per gram of wet tissue weight. […]

[2] = plasma THC and CBD concentrations after separate and co-administration
[3] = skin permeation study of WIN 55,212-2 in flow-through diffusion cells; type: in vitro ADME, human
Protocol: The skin permeation study was carried out using skin excised during abdominal reduction surgery. The skin sample was harvested from the abdomen using a Padgett dermatome set to 250 μm; the skin sample was frozen at −20° C. for one week. The frozen skin sample was thawed and used at the 250 μm split-thickness for the diffusion study. Three PermeGear In-Line Flow Cells were used for the skin permeation study. The receiver fluid was 6% BRIJ® 98 (Polyoxyethylene 20 Oleyl Ether), in order to increase the partitioning of this extremely lipophilic drug into the receiver. The receiver fluid was pumped through the diffusion cells at a rate of one milliliter per hour. The receiver samples were refrigerated until HPLC analysis. The temperature of the diffusion cells was maintained at 32° C. with a circulating water bath. The diffusion experiment was initiated by charging the donor compartment with 0.25 mL of WIN 55,212-2 Mesylate in propylene glycol (50 mg/mL).
Samples were analyzed using a HPLC system which consisted of a Waters 717 Autosampler, 501 Pumps, and a 484 Tunable UV Absorbance Detector with Millennium Chromatography Software. A reversed phase Beckman 5 μm particle 4.6 mm×25 cm C-18 column was used with the UV detector set at a wavelength of 215 nm. The mobile phase consisted of 0.05 M monobasic potassium phosphate:acetonitrile (300 mL:700 mL) at a flow rate of 2 mL/min.
Skin permeation data were plotted as the cumulative amount of drug collected in the receiver compartment as a function of time. The lag times and steady-state fluxes were calculated using the terminal, linear portions of these curves. The slopes (Js) through these curves were determined using linear regression analysis. In all cases, the coefficients of determination for the lines were >0.99.
Lag times were determined by extrapolating the steady-state curves to the X-axis. The permeability coefficient was calculated from Fick's law of diffusion: […]

[4] = full-thickness human skin, Touitou et al. 1988; cited from earlier work
[5] = in vitro permeation of Δ^9-tetrahydrocannabinol across human skin with various receiver solutions

Structure (SMILES): C=C(C)C1CCC(C)=CC1c1c(O)cc(CCCCC)cc1O (centres unmarked) [CBD, 2-[3-methyl-6-(1-methylethenyl)-2-cyclohexen-1-yl]-5-pentyl-1,3-benzenediol]
- Cumulative amount permeated at 48 h ([1]; 48 h): 193.21 ± 22.77 nmol and 338.11 ± 73.09 nmol
- Lag Time ([1]; donor propylene glycol:Hanks' buffer (80:20)): 14.19 ± 1.59 h and 9.43 ± 2.47 h
- Flux ([1]; steady state, donor propylene glycol:Hanks' buffer (80:20) with excess CBD, receiver with 40% PEG 400, 32° C.): 9.16 ± 1.41 nmol/cm^2/h
- cannabidiol plasma concentration, coadministered with THC vs alone ([2]; FIG. 12): higher both initially and over time when coadministered

Structure (SMILES): Cc1c(C(=O)c2cccc3ccccc23)c2cccc3c2n1[C@H](CN1CCOCC1)CO3 [WIN 55,212-2, (R)-(+)-[2,3-dihydro-5-methyl-3-(4-morpholinylmethyl)-pyrrolo[1,2,3-de]-1,4-benzoxazin-6-yl]-1-naphthalenyl-methanone]
- diffusion lag time ([3]; 250 μm split-thickness skin, donor 50 mg/mL in propylene glycol, receiver 6% BRIJ 98, 32° C., 48 h): 24 h
- drug depletion from the donor compartment ([3]; 48 h, donor not saturated): < 1%
- mean flux ([3]; steady state, donor 50 mg/mL in propylene glycol, receiver 6% BRIJ 98, n=3): 2.6 μg/cm^2/h

Structure (SMILES): CCCCCc1cc(O)c2c(c1)OC(C)(C)[C@@H]1CC=C(C)C[C@@H]21 [Δ^8-THC, Δ^8-tetrahydrocannabinol]
- flux rate [4]: 3.5 μg/cm^2/hr
- permeability coefficient [4]: 3.6e-08 cm/s

Structure (SMILES): CCCCCc1cc(O)c2c(c1)OC(C)(C)[C@@H]1CCC(C)=C[C@@H]21 [Δ^9-tetrahydrocannabinol]
- THC plasma concentration, coadministered with cannabidiol vs alone ([2]; FIG. 11): higher both initially and over time when coadministered
- permeability difference of tape stripped skin relative to intact skin ([5]; 6% BRIJ 98 receiver solution): six fold
- permeability enhancement with 6% BSA relative to 4% BSA ([5]; four subjects, except subject 3): 20-50%
- mean lag time ([5]; intact skin): 18.0 ± 3.4 h
- permeability in presence of BRIJ 98 solution relative to BSA solution ([5]; receiver BRIJ 98 (6%) vs BSA (4%), five subjects, except subject 4): 2-5 fold
- mean lag time ([5]; stripped skin): 7.8 ± 3.9 h
- permeability with 6% BRIJ 98 vs 0.5% BRIJ 98 receiver solution ([5]; three subjects, differences not statistically significant): similar
- permeability of tape stripped skin relative to intact skin ([5]; various receiver solutions): 2-3 times
